Measurements published in US20230095021A1, “MODULATORS OF TDP-43” (Alteron Therapeutics, Inc., priority 2019, published 2023).

Key:
TDP-43 = molecular target: T1, TDP-43 (Homo sapiens, UniProt Q13148); test: Solid phase compound-protein complex pull-down with mass spectrometry protein identification; format: binding; settings: precipitated proteins from PLC/PRF/5 and MDA-MB-231 cell lysates
T1 construct: added to whole cell lysate containing 5 mg protein; endogenous in cells; host or cells: MDA-MB-231 and PLC/PRF/5 whole cell lysates
Description: MDA-MB-231 and PLC/PRF/5 cells were maintained at 37° C. in a CO2 incubator in Dulbecco's Modified Eagle's Medium (DMEM) supplemented with 10% fetal bovine serum (FBS) and 1% of penicillin/streptomycin (Invitrogen).
The cells were lysed in lysis buffer containing 20 mM 4-(2-hydroxyethyl)-1-piperazineethanesulfonic acid (HEPES), pH 7.5, 0.3% 3-[(3-cholamidopropyl)dimethylammonio]-1-propanesulfonate (CHAPS), 150 mM NaCl, (Sigma-Aldrich), and protease inhibitor cocktail (Roche) with rotation at 4° C. for one hour followed by centrifugation at 15000 for 20 minutes. Ten milligrams of ALT-59 dissolved in DMSO at 20 mM were added to whole cell lysate containing 5 mg protein and incubated on ice for one hour. Compound precipitates out due to high hydrophobicity. Compound-protein complex were spun down at 1000 rpm and washed 5 times with lysis buffer to remove unbound protein. The compound-protein complex were boiled in SDS-PAGE protein sample buffer (1×) (80 mM Tris-HCl, pH 6.8, 2% SDS, 10% Glycerol, 0.1% Bromophenol blue.
For silver staining, proteins were separated on a 10% SDS-PAGE gel. To prepare samples for protein identification using mass spectrometry, protein samples were run into stacking gel and the electrophoresis was stopped after samples were compressed into single bands. […]

His-Sumo-TDP43 = molecular target: T2, His-Sumo-TDP43 (Homo sapiens, UniProt Q13148); test: Binding of His-Sumo-TDP43 to TG12-biotin, streptavidin bead pull-down and Western blot
T2 construct: made in house; host or cells: E. coli Rosetta (DE3), vector pSumo/TDP43, Ni-NTA purified
Description: Additional experiments were performed to confirm the direct binding of ALT-59 to TDP-43. One microgram of purified His-Sumo-TDP43 was incubated with 1 μg TG12-biotin ([…]-biotin (SEQ ID NO: 1)) in binding buffer containing 20 mM HEPES, pH 7.5, 0.3% CHAPS, 150 mM NaCl, (Sigma-Aldrich), and protease inhibitor cocktail (Roche) for 4 hours on ice in the presence of carrier (50% Cremophor EL, 50% absolute ethanol) or 30 μM ALT-59 dissolved in carrier. Streptavidin magnetic beads (20 μl settled beads, GE Healthcare Life Sciences) were added to pull down the DNA-protein complex by rotating at 4° C. for 2 hours. After being washed 5 times with binding buffer, samples were boiled in protein sample buffer. In another experiment, DNA-protein complex bound to Streptavidin magnetic beads were washed and split into three parts, two of which were incubated with either carrier or ALT-59 for 4 hours with rotation at 4° C. to elute TDP-43 from TG12-biotin-streptavidin. The third part and elutes were mixed with protein sample buffer and boiled. Protein samples from the above experiments were loaded onto 4-20% Tris-glycine gel (Invitrogen) for fractionation. Western blotting was performed using anti-TDP-43 antibody (Proteintech Group).

BACE1 = test: Screening for ALT-59 derivatives with BACE1 protein levels as indicator, U-87 MG cells; format: cell-based; settings: 2 days, concentrations as indicated in FIGS. 15-17
Description: Additional experiments were performed to screen for compounds with higher potency and the ability to penetrate blood brain barrier using BACE1 protein levels as an indicator. U-87 MG cells were cultured as described previously and treated for 2 days with compounds at concentrations as indicated in FIGS. 15-17. Cells were then subjected to Western blotting analysis using anti-BACE1 and anti-beta-actin antibodies.

T2 sequence (Q13148 whole entry): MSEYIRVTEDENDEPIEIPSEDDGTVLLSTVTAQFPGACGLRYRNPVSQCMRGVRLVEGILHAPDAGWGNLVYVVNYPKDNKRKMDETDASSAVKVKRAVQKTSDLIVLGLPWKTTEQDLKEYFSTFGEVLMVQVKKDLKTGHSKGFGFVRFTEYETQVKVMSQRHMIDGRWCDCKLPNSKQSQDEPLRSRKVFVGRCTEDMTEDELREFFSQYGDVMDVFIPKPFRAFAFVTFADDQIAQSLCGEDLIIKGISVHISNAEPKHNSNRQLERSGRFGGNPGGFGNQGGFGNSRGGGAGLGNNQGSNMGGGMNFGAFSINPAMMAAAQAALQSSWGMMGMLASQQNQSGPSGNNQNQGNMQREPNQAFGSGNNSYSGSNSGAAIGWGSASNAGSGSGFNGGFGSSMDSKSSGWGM
T1 sequence (Q13148 whole entry): as above

Q: Which “ALT-59 binding proteins identified by mass spectrometry” value (TDP-43) does the source give for `CN(C)c1ccc(C2Nc3ccc4ccccc4c3C3=C2C(=O)CC(C)(C)C3)cc1Br` (stereo not shown) [ALT-59, 5-(3-bromo-4-(dimethylamino)phenyl)-2,2-dimethyl-2,3,5,6-tetrahydrobenzo[a]phenanthridin-4(1H)-one] here?
A: TDP-43 (boxed) was ranked as the top hit

Q: And the “binding of TDP-43 to TG12” value (His-Sumo-TDP43; 30 μM ALT-59 in carrier, 4 hours on ice)?
A: can block the binding of TDP-43 to TG12

Q: What about the “elution of TDP-43 from the TDP43-TG12 complex” value (His-Sumo-TDP43; preformed DNA-protein complex on streptavidin beads, 4 hours at 4° C.) of the same compound?
A: capable of displacing TG12 from the TDP43-TG12 complex

Q: And the BACE1 protein expression (BACE1)?
A: capable of lowering BACE1 expression
